One assay concerns interferon (α). Briefly: Cytokine Induction in Human Cells: interferon (α) by ELISA. Particulars: PBMC; human PBMCs, incubated 18 to 24 hours, lowest concentration found to induce interferon. Type of assay: cell-based. From the text: (§1) An in vitro human blood cell system was used to assess cytokine induction by compounds of the invention. Activity is based on the measurement of interferon and tumor necrosis factor (α) (IFN and TNF, respectively) secreted into culture media as described by Testerman et. al. In “Cytokine Induction by the Immunomodulators Imiquimod and S-27609”, Journal of Leukocyte Biology, 58, 365–372 (September, 1995).
(§2) Whole blood is collected by venipuncture into EDTA vacutainer tubes from healthy human donors. Peripheral blood mononuclear cells (PBMCs) are separated from whole blood by density gradient centrifugation using Histopaque®-1077 (Sigma Chemicals, St. Louis, Mo.). The PBMCs are suspended at 3–4×10^6 cells/mL in RPMI 1640 medium containing 10% fetal bovine serum, 2 mM L-glutamine and 1% penicillin/streptomycin solution (RPMI complete). The PBMC suspension is added to 48 well flat bottom sterile tissue culture plates (Costar, Cambridge, Mass. or Becton Dickinson Labware, Lincoln Park, N.J.) containing an equal volume of RPMI complete media containing test compound.
(§3) The compounds are solubilized in dimethyl sulfoxide (DMSO). The DMSO concentration should not exceed a final concentration of 1% for addition to the culture wells.
(§4) The solution of test compound is added at 60 μM to the first well containing RPMI complete and serial (three fold or ten fold) dilutions are made. The PBMC suspension is then added to the wells in an equal volume, bringing the test compound concentrations to the desired range. The final concentration of PBMC suspension is 1.5–2×10^6 cells/mL. The plates are covered with sterile plastic lids, mixed gently and then incubated for 18 to 24 hours at 37° C. in a 5% carbon dioxide atmosphere.
(§5) Following incubation the plates are centrifuged for 5–10 minutes at 1000 rpm (˜200×g) at 4° C. The cell culture supernatant is removed with a sterile polypropylene pipet and transferred to sterile polypropylene tubes. Samples are maintained at −30 to −70° C. until analysis. The samples are analyzed for interferon (α) and tumor necrosis factor (α) by ELISA
Interferon (α) concentration is determined by ELISA using a Human Multi-Species kit from PBL Biomedical Laboratories, New Brunswick, N.J.
(§6) The table below lists the lowest concentration found to induce interferon and the lowest concentration found to induce tumor necrosis factor for each compound.

Assay [1] concerns tumor necrosis factor (α). Put plainly: Cytokine Induction in Human Cells: tumor necrosis factor (α) by ELISA. Format: cell-based. As to conditions: PBMC; human PBMCs, incubated 18 to 24 hours, lowest concentration found to induce tumor necrosis factor.
Text: as §1, §2, §3, §4, §5
Tumor necrosis factor (α) (TNF) concentration is determined using ELISA kits available from Genzyme, Cambridge, Mass.; R&D Systems, Minneapolis, Minn.; or Pharmingen, San Diego, Calif.
as §6

Structures can show the parent of a compound that is named as a salt.

Take `CCCCCCCNC(=O)NCCCCn1cnc2c(N)nc3ccccc3c21` [Example 22]: the results for the minimal effective concentration (with interferon (α); in assay [1]) were over 30 µM and 10 µM, respectively.

On to `Nc1nc2ccccc2c2c1ncn2CCCCNC(=O)NC1CCCCC1` [Example 39], for which the values for the minimal effective concentration (in the assay with interferon (α); in assay [1]) were 1.11 µM and 10 µM, respectively.

On to `CCCCc1nc2c(N)nc3ccccc3c2n1CCNC(=O)NS(=O)(=O)c1ccc(F)cc1` [Example 139], for which the minimal effective concentration (in the assay with interferon (α); in assay [1]) was over 10 µM in each case.

Take `CC(=O)c1ccc(NC(=O)NCCCCn2cnc3c(N)nc4ccccc4c32)cc1` [Example 51]: the minimal effective concentration (in the assay on interferon (α); in assay [1]) was 30 µM in each case.

Turning to `CCCCOc1ccc(NC(=O)NCCCCn2cnc3c(N)nc4ccccc4c32)cc1` [Example 21], the minimal effective concentration (with interferon (α); in assay [1]) was over 30 µM each time.

For the compound `CC(C)(C)NC(=O)NCCCCn1cnc2c(N)nc3ccccc3c21` [Example 20], the minimal effective concentration was 1.11 µM in the assay on interferon (α) and 30 µM in assay [1].

Take `COCCc1nc2c(N)nc3ccccc3c2n1CCCCNC(=O)NC1CCCCC1` [Example 105]: the minimal effective concentration stood at 0.001 µM in the assay with interferon (α) and 1 µM in assay [1].

As to `Nc1nc2ccccc2c2c1ncn2CCCCNC(=O)OCC1c2ccccc2-c2ccccc21` [Example 4, 9H-9-Fluorenylmethyl N-[4-(4-amino-1H-imidazo[4,5-c]quinolin-1-yl)butyl]carbamate], the minimal effective concentration (in the assay with interferon (α); in assay [1]) was over 30 µM throughout.

`CCCCc1nc2c(N)nc3ccccc3c2n1CCCCNC(=O)N[C@@H](C)c1ccccc1` [Example 82]: the minimal effective concentration amounted to 0.01 µM in the assay on interferon (α) and 0.1 µM in assay [1].

Regarding `N#Cc1cccc(NC(=O)NCCCCn2cnc3c(N)nc4ccccc4c32)c1` [Example 28], the values for the minimal effective concentration (in the assay with interferon (α); in assay [1]) were 1.11 µM and 3.33 µM, respectively.

Take `CSc1cccc(NC(=O)NCCCCn2cnc3c(N)nc4ccccc4c32)c1` [Example 49]: the minimal effective concentration (in the assay with interferon (α); in assay [1]) was 3.33 µM each time.

Turning to `CCc1ccccc1NC(=O)NCCCCn1cnc2c(N)nc3ccccc3c21` [Example 40], the minimal effective concentration in the assay on interferon (α) worked out at 0.37 µM; in assay [1], 3.33 µM.

For the compound `CCCCc1ccc(NC(=O)NCCCCn2cnc3c(N)nc4ccccc4c32)cc1` [Example 34], the minimal effective concentration (in the assay with interferon (α); in assay [1]) was over 30 µM each time.

`COCCc1nc2c(N)nc3c(c2n1CCCCNC(=O)N(C)C)CCCC3` [Example 134]: the minimal effective concentration was 0.001 µM in the assay with interferon (α) and 1 µM in assay [1].

Regarding `COCCc1nc2c(N)nc3ccccc3c2n1CCCCNC(=O)Nc1ccc([N+](=O)[O-])cc1` [Example 115], the figures for the minimal effective concentration (in the assay with interferon (α); in assay [1]) were 0.0001 µM and 1 µM, respectively.

`CCCNC(=O)NCCn1c(COCC)nc2c(N)nc3ccccc3c21` [Example 67]: the minimal effective concentration in the assay with interferon (α) came out at 1 µM; in assay [1], 10 µM.

Turning to `CCCCc1nc2c(N)nc3ccccc3c2n1CCCCNC(=O)N[C@H](C)c1ccccc1` [Example 81], the minimal effective concentration in the assay with interferon (α) is 0.01 µM; in assay [1] it was 1 µM.

As for `COCCc1nc2c(N)nc3ccccc3c2n1CCCCNC(=O)OCc1ccccc1` [Example 142, N-{4-[4-Amino-2-(2-methoxyethyl)-1H-imidazo[4,5-c]quinolin-1-yl]butyl}carbamate Trifluoroacetate], the minimal effective concentration turned out to be 0.0001 µM in the assay on interferon (α) and 0.1 µM in assay [1].

On to `CCCNC(=S)NCCCCn1c(CCOC)nc2c(N)nc3ccccc3c21` [Example 127], for which the values for the minimal effective concentration (in the assay on interferon (α); in assay [1]) were 0.0001 µM and 1 µM, respectively.

`CCCCc1nc2c(N)nc3ccccc3c2n1CCNC(=O)NS(=O)(=O)c1ccc(Cl)cc1` [Example 140]: the minimal effective concentration with interferon (α) is 10 µM; in assay [1], over 10 µM.
